Measurements reported in publication PMC11714206, “Massively Parallel Screening of Toll/Interleukin‐1 Receptor (TIR)‐Derived Peptides Reveals Multiple Toll‐Like Receptors (TLRs)‐Targeting Immunomodulatory Peptides” (Advanced Science, 2024).
Blank lines part the entries; values can stand above or below the sequence they belong to.

Biological target: T1, MyD88^TIR (Homo sapiens, UniProt Q99836)
T1 construct: MyD88 (residues 148–296); 6xHis; made in house; host or cells: E. coli BL21 (DE3)
Assay: T‐Surf phage library (P8 and P3) selection against MyD88^TIR, four rounds, NGS read counts
Assay type: binding
Details: for P8_MyD88 Rank (after) / P8_MyD88 Rank (before): P8 library; for P3_MyD88 Rank (after) / P3_MyD88 Rank (before): P3 library; for Population: 4th round of selection against MyD88 TIR, share of NGS reads
How it was run: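 Read counts come from NGS of phage pools enriched over four selection rounds on the plate‐coated TIR domain (5 µg mL^−1). Each round: 1 h phage binding at room temperature after 0.2% BSA blocking, Tween washes, acid elution, amplification in E. coli TG1 with M13KO7 helper.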

[1] = P8_MyD88: rank by NGS read count after grouping
[2] = P8_MyD88: rank by NGS read count before grouping
[3] = 4R selection against MyD88, rank after grouping
[4] = 4R selection against MyD88, rank before grouping
[5] = P3_MyD88: rank by count after grouping
[6] = P3_MyD88: rank by count before grouping
[7] = P3_MyD88 pool: P3 T-Surf phage library
[8] = selection against MyD88, rank after grouping
[9] = selection against MyD88, rank before grouping
[10] = P8_MyD88: rank by count after grouping
[11] = P8_MyD88: rank by count before grouping
[12] = selection against MyD88 TIR, rank by count after grouping
[13] = selection against MyD88 TIR, rank by count before grouping
[14] = selection against MyD88, rank by count after grouping
[15] = selection against MyD88, rank by count before grouping
[16] = P8_MyD88 pool: P8 T-Surf phage library

T1 sequence (Q99836 148-296): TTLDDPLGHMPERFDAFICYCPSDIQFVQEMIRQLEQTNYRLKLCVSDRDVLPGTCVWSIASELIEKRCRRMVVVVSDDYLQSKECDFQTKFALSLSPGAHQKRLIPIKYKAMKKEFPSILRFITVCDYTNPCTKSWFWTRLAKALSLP

Sequence: YLLLRVLQTIFLRRTD
Rank (after) [1]: 898
Rank (before) [2]: 1967

Sequence: SSWWALEELAHIIE
P8_MyD88 Rank (after) [3]: 634
P8_MyD88 Rank (before) [4]: 3803

Sequence: SLRRNLVSNLIEEFIR
P3_MyD88 Rank (after) [3]: 580
P3_MyD88 Rank (before) [4]: 3076

Sequence: LGYISIVRGYFVGIER
P8_MyD88 Rank (after) [8]: 486
P8_MyD88 Rank (before) [9]: 3337

Sequence: PQDLGWFYERLISQILK
Rank (after) [10]: 386
Rank (before) [11]: 1201

Sequence: YAFTGQLNQYLVQRGV
P3_MyD88 Rank (after) [3]: 623
P3_MyD88 Rank (before) [4]: 1538

Sequence: WALDELLQILYARERF
Rank (after) [10]: 448
Rank (before) [11]: 1466

Sequence: NYATSRWALDELVRIF
P8_MyD88 Rank (after) [12]: 227
P8_MyD88 Rank (before) [13]: 419

Sequence: DPLALEWYYERPFSQM
P8_MyD88 Rank (after) [8]: 559
P8_MyD88 Rank (before) [9]: 2612

Sequence: HPWRNTLTAAANLNGR
P3_MyD88 Rank (after) [8]: 546
P3_MyD88 Rank (before) [9]: 2804

Sequence: IAADHLSYLGRLLLSR
Rank (after) [1]: 885
Rank (before) [2]: 3614

Sequence: LGYDWIVWAYFVGIED
Rank (after) [1]: 894
Rank (before) [2]: 3219

Sequence: LGYHWNDGEYFVGIKD
P8_MyD88 Rank (after) [8]: 489
P8_MyD88 Rank (before) [9]: 3306

Sequence: SELRVVDKETDKIQTPLKNA
Rank (after) [5]: 412
Rank (before) [6]: 3051

Sequence: IWVWDFYNSQLEGPMG
P8_MyD88 Rank (after) [14]: 753
P8_MyD88 Rank (before) [15]: 3609

Sequence: DHHLDLPRGKAIKLEILG
Population [7]: 0.00437%

Sequence: SSFRDGLWRLLELSKT
Rank (after) [5]: 106
Rank (before) [6]: 1198

Sequence: LGYHGLIGSILWALK
P8_MyD88 Rank (after) [3]: 618
P8_MyD88 Rank (before) [4]: 3317

Sequence: DHHLDLPRGKSFKPEILG
Rank (after) [5]: 451
Rank (before) [6]: 1996

Sequence: LGYQWIAGEYFVGIED
Rank (after) [1]: 1021
Rank (before) [2]: 3320

Sequence: YASYDDNDYYWLTNVLLRLL
P8_MyD88 Rank (after) [14]: 710
P8_MyD88 Rank (before) [15]: 1778

Sequence: YTALTNRGFHTFLDND
Rank (after) [5]: 479
Rank (before) [6]: 1631

Sequence: YYDSRWALNELLEIL
Rank (after) [1]: 903
Rank (before) [2]: 1682

Sequence: FDYELQQSLFHALIMR
P8_MyD88 Rank (after) [12]: 213
P8_MyD88 Rank (before) [13]: 296

Sequence: FIDFLFDAFETKGIFV
Rank (after) [10]: 103
Rank (before) [11]: 107
Population [16]: 0.0216%

Sequence: SSFREGLWRLPELSRK
Rank (after) [5]: 121
Rank (before) [6]: 3183

Sequence: DHHLDLLRGIAIKLEILG
P3_MyD88 Rank (after) [14]: 722
P3_MyD88 Rank (before) [15]: 1998

Sequence: DFLLTILEAMKTKNQL
Rank (after) [10]: 148
Rank (before) [11]: 159
Population [16]: 0.00925%

Sequence: YLRADELLKILYANETM
Rank (after) [1]: 870
Rank (before) [2]: 2072

Sequence: LSRVPSGHVIPGFVAI
P3_MyD88 Rank (after) [8]: 529
P3_MyD88 Rank (before) [9]: 2378

Sequence: LGYHWIDWEYFVGSED
Population [16]: 0.00655%

Other lines, results leading:

Rank (after) [5]: 410
Rank (before) [6]: 2692
Sequence: RELGVVDDGSVSALEM

Population [7]: 0.00408%
Sequence: LKVESWRQALEKADKL

Rank (after) [5]: 171
Rank (before) [6]: 1662
Sequence: YTALTNSGFPTFRDHD

Rank (after) [5]: 108
Rank (before) [6]: 953
Sequence: DHHLDLPRGKAIKPEIL

Rank (after) [1]: 980
Rank (before) [2]: 3412
Sequence: PHDLDWLYERPVRLIL

P3_MyD88 Rank (after) [8]: 511
P3_MyD88 Rank (before) [9]: 2306
Sequence: LVAHEISKKRKIFATS

Population [7]: 0.00291%
Sequence: LVAHEISKKMKIFATF

P3_MyD88 Rank (after) [8]: 482
P3_MyD88 Rank (before) [9]: 2062
Sequence: DHQLDLPRCKAIKPEILG

P8_MyD88 Rank (after) [12]: 210
P8_MyD88 Rank (before) [13]: 492
Sequence: LAIIGLIGSILWALK

Rank (after) [1]: 952
Rank (before) [2]: 3420
Sequence: PQDLVWFFEGLVSLIL

P3_MyD88 Rank (after) [12]: 259
P3_MyD88 Rank (before) [13]: 1558
Sequence: YLQWGYSWFWDRLRFA

P3_MyD88 Rank (after) [12]: 233
P3_MyD88 Rank (before) [13]: 3463
Sequence: NQLRNAQTAAANLSGW

Rank (after) [10]: 94
Rank (before) [11]: 478
Sequence: EPQDLDWFYERLVSLL

Population [16]: 0.01%
Sequence: DPQDLEWFYERLVSLI

P3_MyD88 Rank (after) [12]: 286
P3_MyD88 Rank (before) [13]: 3226
Sequence: SSFREDLCRLLALSNK
